{
  "source": "patent US20250228984A1",
  "about": "“Metallophore-Radionuclide Complex as Nuclear Imaging Contrast Agents” (priority 2024, published 2025)",
  "key": {"[1]": {"test_system": "FoxA expressing P. aeruginosa", "test": "PET/CT imaging and ex vivo biodistribution of Ga-68 DFO, P. aeruginosa", "type": "in vivo, Pseudomonas aeruginosa"}, "[2]": {"test_system": "non-FoxA expressing organisms", "test": "PET/CT imaging and ex vivo biodistribution of Ga-68 DFO, non-FoxA organisms", "type": "in vivo"}},
  "data": [
    {"smiles": "CC(=O)N([O-])CCCCCNC(=O)CCC(=O)N([O-])CCCCCNC(=O)CCC(=O)N([O-])CCCCCN.[68Ga+3]", "note": "[Ga-68 DFO, gallium-68 bound DFO]", "values": [
      {"measurement": "uptake of probe in the lungs (in vivo imaging and ex vivo biodistribution)", "setting": "[1]", "value": "increased uptake"},
      {"measurement": "uptake of probe in the lungs (in vivo imaging and ex vivo biodistribution)", "setting": "[2]", "value": "limited uptake"}
    ]}
  ]
}
